Like-named read-outs stand apart in the source and are kept apart here.
Tests used:
[1] = target: T1, Type I 5α-Reductase from Human Scalp (Homo sapiens, UniProt P18405); assay: Human Type I 5α-reductase assay (conversion of [3H]-testosterone to 5α-reduced metabolites); type: biochemical
T1 construct: Scalp punch biopsies from graft recipient sites were obtained from human hair transplant procedures; from tissue; host or cells: human scalp punch biopsies (hair transplant graft recipient sites), homogenate, 100,000×g pellet
T1 sequence (P18405 1-259): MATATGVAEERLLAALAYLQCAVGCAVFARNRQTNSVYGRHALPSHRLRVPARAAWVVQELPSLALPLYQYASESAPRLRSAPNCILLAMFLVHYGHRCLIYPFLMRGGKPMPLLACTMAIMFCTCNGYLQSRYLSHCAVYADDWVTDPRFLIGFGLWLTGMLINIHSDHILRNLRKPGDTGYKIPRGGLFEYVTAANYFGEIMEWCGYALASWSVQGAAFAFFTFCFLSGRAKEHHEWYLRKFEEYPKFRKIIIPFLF

[2] = target: T2, Type II 5α-Reductase from Human Prostate (Homo sapiens, UniProt P31213); assay: Human Type II 5α-reductase assay (conversion of [3H]-testosterone to 5α-reduced metabolites); type: biochemical
T2 construct: The same procedure as above was used for preparations using tissue from prostate surgery; from tissue; host or cells: human prostate tissue from surgery, homogenate, 100,000×g pellet
T2 sequence (P31213 1-254): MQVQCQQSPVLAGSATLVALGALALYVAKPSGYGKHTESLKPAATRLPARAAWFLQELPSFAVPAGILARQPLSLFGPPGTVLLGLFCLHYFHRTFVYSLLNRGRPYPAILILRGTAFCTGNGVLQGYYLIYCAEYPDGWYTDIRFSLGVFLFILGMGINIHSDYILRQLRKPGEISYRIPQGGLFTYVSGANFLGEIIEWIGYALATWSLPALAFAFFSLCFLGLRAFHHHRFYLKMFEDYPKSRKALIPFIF

[3] = pH 7.5, 0.3 μM, 50 nM [3H]-testosterone, pH 7.5, 25°, 180 min, compared to control reaction mixtures, read-out: percent inhibition of Type I AR
[4] = pH 5.5, 0.3 μM, sodium acetate pH 5.5, 25°, 30 min, compared to control reaction mixtures, read-out: percent inhibition of Type II AR

| inhibition at 0.3 µM [1, 3] [%] | inhibition at 0.3 µM [2, 4] [%] | Compound | inhibition at 0.3 µM ([1]; pH 7.5, read-out: percent inhibition of Type I AR) [%] | inhibition at 0.3 µM ([2]; pH 5.5, read-out: percent inhibition of Type II AR) [%] |
| --- | --- | --- | --- | --- |
| 71 | 37 | CN1C(=O)CC[C@]2(C)c3ccc(-c4cnc5ccccc5n4)cc3CC[C@@H]12 [Example 255, (+)-(4aR)-(10bR)-4-methyl-8-(2-quinoxalinyl)-10b-methyl-1,2,3,4,4a,5,6,10b-octahydrobenzo[f]quinolin-3-one] | – | – |
| 35 | 83 | CN1C(=O)CC[C@]2(C)c3ccc(C(=O)OC(c4ccccc4)c4ccccc4)cc3CC[C@@H]12 [Example 147, (4aR)-(10bR)-4,10b-dimethyl-8-diphenylmethoxycarbonyl-1,2,3,4,4a,5,6,10b-octahydrobenzo[f]quinolin-3-one] | – | – |
| 95 | 38 | CN1C(=O)CC[C@]2(C)c3ccc(-c4ccc(SCc5ccc([N+](=O)[O-])cc5)cc4)cc3CC[C@@H]12 [Example 233, (+)-(4aR)-(10bR)-4-methyl-8-(4-[4-nitrobenzyl]thiophenyl)-10b-methyl-1,2,3,4,4a,5,6,10b-octahydrobenzo[f]quinolin-3-one] | – | – |
| 87 | 32 | CN(C)c1cccc2c(S(=O)(=O)Nc3cccc(-c4ccc5c(c4)CC[C@H]4N(C)C(=O)CC[C@]54C)c3)cccc12 [Example 91, (+)-(4aR)-(10bR)-4-methyl-8-[3-([5-dimethylamino-1-naphthyl]sulfonylamino)phenyl]-10b-methyl-1,2,3,4,4a,5,6,10b-octahydrobenzo[f]quinolin-3-one] | – | – |
| 58 | 40 | CN1C(=O)CC[C@]2(C)c3ccc(Sc4nccc5sccc45)cc3CC[C@@H]12 [Example 175, (+)-(4aR)-(10bR)-4-methyl-8-(4-thieno [3,2-c]pyridylthio)-10b-methyl-1,2,3,4,4a,5,6,10b-octahydrobenzo[f]quinolin-3-on] | – | – |
| 86 | 29 | CN1C(=O)CC[C@]2(C)c3ccc(-c4c(F)cc(F)cc4F)cc3CC[C@@H]12 [Example 230, (+)-(4aR)-(10bR)-4-methyl-8-(2,4,6-trifluorophenyl)-10b-methyl-1,2,3,4,4a,5,6,10b-octahydrobenzo[f]quinolin-3-one] | – | – |

Second part, the compound before the results:

| Compound | inhibition at 0.3 µM [1, 3] [%] | inhibition at 0.3 µM [2, 4] [%] | inhibition at 0.3 µM ([1]; pH 7.5, read-out: percent inhibition of Type I AR) [%] | inhibition at 0.3 µM ([2]; pH 5.5, read-out: percent inhibition of Type II AR) [%] |
| --- | --- | --- | --- | --- |
| CN1C(=O)CC[C@]2(C)c3ccc(C#Cc4ccccc4)cc3CC[C@@H]12 [Example 284, (4aR)-(10bR)-4,10b-dimethyl-8-(2-phenylethynyl)-1,2,3,4,4a,5,6,10b-octahydrobenzo[f]quinolin-3-one] | – | – | 86 | 63 |
| CN1C(=O)CC[C@]2(C)c3ccc(-c4ccccc4C(F)(F)F)cc3CC[C@@H]12 [Example 43, (+)-(4aR)-(10bR)-4-methyl-8-(2-trifluoromethylphenyl)-10b-methyl-1,2,3,4,4a,5,6,10b-octahydrobenzo[f]quinolin-3-one] | 68 | 18 | – | – |
| CN1C(=O)CC[C@]2(C)c3ccc(-c4ccc(F)c(Cl)c4)cc3CC[C@@H]12 [Example 88, (+)-(4aR)-(10bR)-4-methyl-8-(3-chloro-4-fluorophenyl)-10b-methyl-1,2,3,4,4a,5,6,10b-octahydrobenzo[f]quinolin-3-one] | 96 | 43 | – | – |
| CN1C(=O)CC[C@]2(C)c3ccc(-c4ccc5cc(OCc6ccccc6)ccc5c4)cc3CC[C@@H]12 [Example 62, (+)-(4aR)-(10bR)-4-methyl-8-(2-[6-benzyloxy]naphthyl)-10b-methyl-1,2,3,4,4a,5,6,10b-octahydrobenzo[f]quinolin-3-one] | 45 | 42 | – | – |
| COc1cc(-c2ccc3c(c2)CC[C@H]2N(C)C(=O)CC[C@]32C)ccc1O [Example 36, (+)-(4aR)-(10bR)-4-methyl-8-(4-hydroxy-3-methoxyphenyl)-10b-methyl-1,2,3,4,4a,5,6,10b-octahydrobenzo[f]quinolin-3-one] | 41 | 52 | – | – |
